From the supplement of paper PMC11061612

Assays:
[1] = compound: C1CC(C1)(C(=O)[O-])C(=O)[O-].N.N.[Pt+2] [Carboplatin]; details: max 10 µM
Outline: (§1)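 Plates with 1536 wells received cancer cell lines in 7.5 μl of DMEM/F12 or RPMI containing 10% FBS. After 24 hours at 37°C and 5% CO2, cells were dosed for 72 hours with final DMSO typically 0.2%, and viability was read by CellTiter-Glo 2.0 luminescence scaled between blank-well and DMSO-well means. The single-agent IC50 was taken from a logistic fit of the dose responses made with a non-linear mixed effects model, that logistic curve having two parameters.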

[2] = compound: C1CN(CCC1(C(=O)N[C@@H](CCO)C2=CC=C(C=C2)Cl)N)C3=NC=NC4=C3C=CN4 [AZD5363]; details: max 10 µM
Outline: as §1

[3] = compound: C=CCn1c(=O)c2cnc(Nc3ccc(N4CCN(C)CC4)cc3)nc2n1-c1cccc(C(C)(C)O)n1 [AZD1775]; details: max 3 µM
Outline: as §1

[4] = compound: CC(=O)Nc1cccc(-n2c(=O)n(C3CC3)c(=O)c3c(Nc4ccc(I)cc4F)n(C)c(=O)c(C)c32)c1 [Trametinib]; details: max 1 µM
Outline: as §1

[5] = compound: CC(=O)O[C@H]1C(=O)[C@@]2(C)[C@H]([C@H](OC(=O)c3ccccc3)[C@]3(O)C[C@H](OC(=O)[C@H](O)[C@@H](NC(=O)c4ccccc4)c4ccccc4)C(C)=C1C3(C)C)[C@]1(OC(C)=O)CO[C@@H]1C[C@@H]2O [Paclitaxel]; details: max 3 µM
Outline: as §1

[6] = compound: CC(=O)c1c(C)c2cnc(Nc3ccc(N4CCNCC4)cn3)nc2n(C2CCCC2)c1=O [Palbociclib]; details: max 10 µM
Outline: as §1

[7] = compound: CC(C)n1c(=O)n(C)c2cnc3cc(F)c(-c4ccc(OCCCN5CCCCC5)nc4)cc3c21 [AZD1390]; details: max 0.3 µM
Outline: as §1

[8] = compound: CC1(C)CCC(CN2CCN(c3ccc(C(=O)NS(=O)(=O)c4ccc(NCC5CCOCC5)c([N+](=O)[O-])c4)c(Oc4cnc5[nH]ccc5c4)c3)CC2)=C(c2ccc(Cl)cc2)C1 [Venetoclax]; details: max 1 µM
Outline: as §1

[9] = compound: CC1=C(C(=CC=C1)Cl)NC(=O)C2=CN=C(S2)NC3=CC(=NC(=N3)C)N4CCN(CC4)CCO [Dasatinib]; details: max 2 µM
Outline: as §1

[10] = compound: CC1=CN2[C@@H](C1)C=NC3=CC(=C(C=C3C2=O)OC)OCCCCCOC4=C(C=C5C(=C4)N=C[C@@H]6CC(=CN6C5=O)C)OC [SG3199]; details: max 0.001 µM
Outline: as §1

[11] = compound: CCN(CCO)CCCOc1ccc2c(Nc3cc(CC(=O)Nc4cccc(F)c4)[nH]n3)ncnc2c1 [AZD2811]; details: max 1 µM
Outline: as §1

[12] = compound: CCc1c2c(nc3ccc(O)cc13)-c1cc3c(c(=O)n1C2)COC(=O)[C@]3(O)CC [SN-38]; details: max 0.3 µM
Outline: as §1

[13] = compound: CN(C)CCCOc1ccc(-c2ccc3ncc4c(c3c2)n(C2CCOCC2)c(=O)n4C)cn1 [AZD0156]; details: max 3 µM
Outline: as §1

[14] = compound: CN(CC[C@H](CSC1=CC=CC=C1)NC2=C(C=C(C=C2)S(=O)(=O)NC(=O)C3=CC=C(C=C3)N4CCC(CC4)[C@H](C5=CC=CC=C5C6=CC=C(C=C6)Cl)O)S(=O)(=O)C(F)(F)F)CCO [AZD4320]; details: max 1 µM
Outline: as §1

[15] = compound: COc1cc(Nc2ncc3c(n2)-c2ccc(Cl)cc2C(c2c(F)cccc2OC)=NC3)ccc1C(=O)O [Alisertib]; details: max 10 µM
Outline: as §1

[16] = compound: COc1cc([C@@H]2c3cc4c(cc3[C@@H](O[C@@H]3O[C@@H]5CO[C@@H](C)O[C@H]5[C@H](O)[C@H]3O)[C@H]3COC(=O)[C@H]23)OCO4)cc(OC)c1O [Etoposide]; details: max 10 µM
Outline: as §1

[17] = compound: COc1cc2ncnc(Nc3ccc(F)c(Cl)c3)c2cc1OCCCN1CCOCC1 [Gefitinib]; details: max 10 µM
Outline: as §1

[18] = compound: COc1cccc(OCCCN)c1-c1cc(Nc2cnc(C#N)cn2)n[nH]1 [Prexasertib]; details: max 1 µM
Outline: as §1

[19] = compound: COc1cccc2c1C(=O)c1c(O)c3c(c(O)c1C2=O)C[C@@](O)(C(=O)CO)C[C@@H]3O[C@H]1C[C@H](N)[C@H](O)[C@H](C)O1 [Doxorubicin]; details: max 1 µM
Outline: as §1

[20] = compound: COc1nnc2ccc(N3CCC(c4ccc(OCCN5CCN(C)C(=O)[C@H]5C)cc4)CC3)nn12 [AZD5153]; details: max 1 µM
Outline: as §1

[21] = compound: CS(=O)(=O)CCNCc1ccc(-c2ccc3ncnc(Nc4ccc(OCc5cccc(F)c5)c(Cl)c4)c3c2)o1 [Lapatinib]; details: max 10 µM
Outline: as §1

[22] = compound: C[C@@H](Nc1cc(F)cc(F)c1)c1cc(C(=O)N(C)C)cc2c(=O)cc(N3CCOCC3)oc12 [AZD8186]; details: max 10 µM
Outline: as §1

[23] = compound: C[C@@H](Oc1cc(-c2cnn(C3CCNCC3)c2)cnc1N)c1c(Cl)ccc(F)c1Cl [Crizotinib]; details: max 10 µM
Outline: as §1

[24] = compound: C[C@@H](c1ccc2nccn2c1)n1nnc2ncc(-c3cnn(C)c3)nc21 [Savolitinib]; details: max 1 µM
Outline: as §1

[25] = compound: C[C@@H]1COCCN1C2=NC(=NC(=C2)C3(CC3)[S@](=N)(=O)C)C4=C5C=CNC5=NC=C4 [AZD6738]; details: max 10 µM
Outline: as §1

[26] = compound: Cc1c2c(nn1C)CSCc1cc(n(C)n1)CSc1cc(c3ccccc3c1)OCCCc1c(C(=O)O)n(C)c3c-2c(Cl)ccc13 [AZD5991]; details: max 1 µM
Outline: as §1

[27] = compound: Cc1cc2ncnn2cc1Nc1ncc2c(n1)n(C1CCOCC1)c(=O)n2C [AZD7648]; details: max 10 µM
Outline: as §1

[28] = compound: Cc1nc(-c2cn3c(n2)-c2ccc(-c4cnn(C(C)(C)C(N)=O)c4)cc2OCC3)n(C(C)C)n1 [Taselisib]; details: max 10 µM
Outline: as §1

[29] = compound: Cn1cnc2c(F)c(Nc3ccc(Br)cc3Cl)c(C(=O)NOCCO)cc21 [Selumetinib]; details: max 10 µM
Outline: as §1

[30] = compound: N#Cc1cnc(Nc2cc(NC[C@H]3CNCCO3)c(C(F)(F)F)cn2)cn1 [SRA737]; details: max 10 µM
Outline: as §1

[31] = compound: NC1(c2ccc(-c3nc4ccn5c(=O)[nH]nc5c4cc3-c3ccccc3)cc2)CCC1 [MK-2206]; details: max 10 µM
Outline: as §1

[32] = compound: Nc1ccn([C@@H]2O[C@H](CO)[C@@H](O)C2(F)F)c(=O)n1 [Gemcitabine]; details: max 0.3 µM
Outline: as §1

[33] = compound: O=C(Nc1ccc2[nH]nc(-c3ccncc3)c2c1)[C@@H]1CCN(CC(=O)N2CCN(c3ccc(-c4ncccn4)cc3)CC2)C1; details: max 5 µM
Outline: as §1

[34] = compound: O=C(c1cc(Cc2n[nH]c(=O)c3ccccc23)ccc1F)N1CCN(C(=O)C2CC2)CC1 [Olaparib]; details: max 10 µM
Outline: as §1

[35] = compound: O=c1[nH]cc(F)c(=O)[nH]1 [5-Fluorouracil]; details: max 20 µM
Outline: as §1

Row | Cell Line | IC50, cell viability 72 h [1] [nM] | IC50, cell viability 72 h [2] [nM] | IC50, cell viability 72 h [3] [nM] | IC50, cell viability 72 h [4] [nM] | IC50, cell viability 72 h [5] [nM] | IC50, cell viability 72 h [6] [nM] | IC50, cell viability 72 h [7] [nM] | IC50, cell viability 72 h [8] [nM] | IC50, cell viability 72 h [9] [nM] | IC50, cell viability 72 h [10] [nM] | IC50, cell viability 72 h [11] [nM] | IC50, cell viability 72 h [12] [nM] | IC50, cell viability 72 h [13] [nM] | IC50, cell viability 72 h [14] [nM] | IC50, cell viability 72 h [15] [nM] | IC50, cell viability 72 h [16] [nM] | IC50, cell viability 72 h [17] [nM] | IC50, cell viability 72 h [18] [nM] | IC50, cell viability 72 h [19] [nM] | IC50, cell viability 72 h [20] [nM] | IC50, cell viability 72 h [21] [nM] | IC50, cell viability 72 h [22] [nM] | IC50, cell viability 72 h [23] [nM] | IC50, cell viability 72 h [24] [nM] | IC50, cell viability 72 h [25] [nM] | IC50, cell viability 72 h [26] [nM] | IC50, cell viability 72 h [27] [nM] | IC50, cell viability 72 h [28] [nM] | IC50, cell viability 72 h [29] [nM] | IC50, cell viability 72 h [30] [nM] | IC50, cell viability 72 h [31] [nM] | IC50, cell viability 72 h [32] [nM] | IC50, cell viability 72 h [33] [nM] | IC50, cell viability 72 h [34] [nM] | IC50, cell viability 72 h [35] [nM]
1 | CAL-85-1 (Breast Carcinoma) | > 10000 | > 10000 | 2040 | 351 | 66.7 | > 10000 | > 300 | > 1000 | 1210 | > 1 | > 1000 | 96.5 | > 3000 | > 1000 | > 10000 | > 10000 | > 10000 | > 1000 | > 1000 | 534 | > 10000 | > 10000 | > 10000 | > 1000 | > 10000 | > 1000 | > 10000 | 6290 | > 10000 | > 10000 | > 10000 | 246 | > 5000 | > 10000 | > 20000
2 | C32 (Melanoma) | > 10000 | > 10000 | > 3000 | 4.11 | 346 | > 10000 | > 300 | > 1000 | > 2000 | > 1 | > 1000 | 61.7 | > 3000 | > 1000 | > 10000 | > 10000 | > 10000 | 52.7 | > 1000 | > 1000 | > 10000 | > 10000 | > 10000 | > 1000 | 8160 | > 1000 | > 10000 | > 10000 | 323 | > 10000 | > 10000 | 54.1 | 174 | > 10000 | > 20000
3 | MDA-MB-175-VII (Breast Carcinoma) | > 10000 | 4360 | > 3000 | 463 | > 3000 | > 10000 | > 300 | > 1000 | > 2000 | > 1 | > 1000 | 110 | > 3000 | > 1000 | > 10000 | > 10000 | 1150 | > 1000 | > 1000 | > 1000 | 514 | > 10000 | > 10000 | > 1000 | > 10000 | > 1000 | > 10000 | 1790 | > 10000 | > 10000 | 3990 | > 300 | 794 | > 10000 | > 20000
